Measured values published in patent US20070225316A1, “Methods and compositions for treating schizophrenia” (priority 2006, published 2007).
Counter-ions that a name gives are not always drawn.

Tested on: NMDA receptors (NMDA-induced currents)
Assay: Patch clamp (whole cell) registration of NMDA-induced currents in cultured rat hippocampus neurons
Type: cell-based
Settings: for Change of the blocking effect of MK-801 on NMDA-induced currents after preliminary application of the substance: result in words
Description: Experiments were carried out by the patch clamp method on freshly isolated neurons of a rat brain cortex or on cultured rat hippocampus neurons. Neurons for cultivation were obtained from the hippocampus of neonatal rats (1-2 days) by the method of trypsinization followed by pipetting. Cells suspended in culture medium were placed in 3 mL quantities into the wells of a 6-well planchette (Nunc) or into Petri dishes, in which glasses coated with poly-L-lysine had first been placed. The cell concentration as a rule was […]. The culture medium consisted of Eagle's minimum medium and a DME/F12 medium (1:1) supplemented with 10% calf serum, glutamine (2 mM), gentamycin (50 μg/mL), glucose (15 mM) and 20 mM KCl, with the pH brought to 7-7.4 using NaHCO3. Planchettes containing cultures were placed in a CO2— incubator at 37° C. and 100% humidity. Cytosine arabinoside 10-20 μL was added on the second to third day of cultivation. After 6-7 days of cultivation 1 mg/mL glucose was added to the medium, or the medium was exchanged, depending on the following experiment. The cultured hippocampus neurons were placed in a 0.4 mL working chamber. The working solution had the following composition (mM): NaCl 150.0, KCl 5.0, CaCl2 2.6, MgSO4×7H2O 2.0, HEPES 10.0, glucose 15.0, pH 7.36.
Transmembrane currents produced by application of NMDA were registered by the patch clamp electrophysiological method in the whole cell configuration. Application of substances was done by the method of rapid superfusion. Currents were registered with the aid of borosilicate microelectrodes (resistance […]) filled with the following composition (mM): KCl 100.0, EGTA 11.0, CaCl2 1.0, MgCl2 1.0, HEPES 10.0, ATP 5.0 pH 7.2. An EPC-9 instrument (HEKA, Germany) was used for registration. Currents were recorded on the hard disk of a Pentium-IV PC using the pulse program, which is also purchased from HEKA. The results were analyzed with the aid of the Pulsefit program (HEKA).

In the case of `N[C@H](CCCP(=O)(O)O)C(=O)O` [D-AP5, D-2-amino-5-phosphonovaleric acid], the “Change of the blocking effect of MK-801 on NMDA-induced currents after preliminary application of the substance” value is reported as “did not decrease the blocking effect of MK-801”.

`Cc1ccc2c(c1)c1c(n2CCc2ccc(C)nc2)CCN(C)C1` [Dimebon, 2,8-dimethyl-5-[2-(6-methylpyridyl-3)ethyl]-2,3,4,5-tetrahydro-1H-pyrido[4,3-b]indole dihydrochloride] was tested, and the IC50 (cultured rat hippocampus neurons, range and average printed, dihydrochloride, read-out: IC50 of blocking effect on currents caused by application of NMDA) was 7.7 ± 1.9 µM, the “Blockade of NMDA-induced currents (%)” value (dimebon alone at 10 μM) was “By 50-70% at 10 μM” and the “Blockade of NMDA-induced currents (%) by MK-801 after preliminary perfusion with dimebon” value (preliminary perfusion with dimebon 10 μM, then MK-801) was 40±18%. For the same molecule, the “Change of the blocking effect of MK-801 on NMDA-induced currents after preliminary application of the substance” value was “capable of reducing the blocking effect of MK-801”.
